Experimental findings from PubChem BioAssay (NCI) are described below.

Structures are written as SMILES.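 Interpolation was linear, between the two tested concentrations surrounding the appropriate level; five concentrations were tested over 48 hours in 96-well plates. GI50 = concentration required for 50% inhibition of growth. At the TGI there is no net growth.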 Bounds are passed on as bounds.

Test systems include CCRF-CEM leukemia; A498 renal; SK-MEL-2 melanoma; PC-3 prostate; SW-620 colon; SK-MEL-5 melanoma; MOLT-4 leukemia; ACHN renal; A549 NSCLC; MALME-3M melanoma.
Experiment in all cases: NCI-60 cell line screen, 48 h

`O=C(Nc1ccccc1)c1cc2ccccc2c(N=Nc2cccc([N+](=O)[O-])c2)c1O`: the TGI with CCRF-CEM leukemia, in the experiment with A498 renal, in the experiment on SK-MEL-2 melanoma, in the experiment with PC-3 prostate, in the experiment on SW-620 colon and in the experiment on SK-MEL-5 melanoma was above 100 µM each time. Besides, the TGI with MOLT-4 leukemia, in the experiment with ACHN renal, in the experiment with A549 NSCLC and in the experiment on MALME-3M melanoma was above 100 µM each time.

For the compound `C1=N[C@]23C(=N[C@H](N=C2NCc2ccco2)[C@]24N=CNC2=N[C@H]3N=C4NCc2ccco2)N1`, the GI50 is above 100 µM with CCRF-CEM leukemia; 5.8 µM with A498 renal; above 100 µM in the experiment on SK-MEL-2 melanoma; above 100 µM in the experiment with PC-3 prostate; above 100 µM with SW-620 colon; above 100 µM with SK-MEL-5 melanoma. Moreover, the GI50 in the experiment on MOLT-4 leukemia, in the experiment on ACHN renal, in the experiment on A549 NSCLC and with MALME-3M melanoma was above 100 µM in each case. Further, the TGI with CCRF-CEM leukemia, with A498 renal, in the experiment on SK-MEL-2 melanoma, in the experiment on PC-3 prostate, in the experiment on SW-620 colon and in the experiment with SK-MEL-5 melanoma was above 100 µM throughout. The TGI in the experiment with MOLT-4 leukemia, with ACHN renal, in the experiment on A549 NSCLC and in the experiment with MALME-3M melanoma was above 100 µM each time.

Turning to `Cc1c(C)c2c(c(C)c1OC(=O)CCC(=O)[O-])CCC(C)(CCCCCCCCCCC[P+](c1ccccc1)(c1ccccc1)c1ccccc1)O2` (configuration not stated), the GI50 with CCRF-CEM leukemia was 0.226 µM; in the experiment on A498 renal, 0.0851 µM; with PC-3 prostate, 0.158 µM; in the experiment with SW-620 colon, 0.174 µM; in the experiment on SK-MEL-5 melanoma, 0.0904 µM; in the experiment on MOLT-4 leukemia it was 0.456 µM. Besides, the GI50 was 0.264 µM in the experiment on ACHN renal and 0.234 µM with A549 NSCLC. The TGI turned out to be 1.31 µM in the experiment with CCRF-CEM leukemia; 0.41 µM in the experiment with A498 renal; 0.706 µM in the experiment on PC-3 prostate; 0.842 µM in the experiment on SW-620 colon; 0.182 µM in the experiment on SK-MEL-5 melanoma; 4.7 µM with MOLT-4 leukemia. In addition, the figures for the TGI in the experiment with ACHN renal and in the experiment with A549 NSCLC were 0.909 µM and 4.58 µM, respectively.

Consider `O=C([CH-]C(=O)c1ccccc1)c1ccccc1.[C-]#[O+].[C-]#[O+].[Ir]`, for which the GI50 in the experiment on SK-MEL-2 melanoma was above 100 µM; with SW-620 colon, 59.4 µM; in the experiment with SK-MEL-5 melanoma it was 39.3 µM; in the experiment on MOLT-4 leukemia, 56.7 µM; in the experiment on A549 NSCLC, 82.9 µM; in the experiment with MALME-3M melanoma it was above 100 µM. The TGI in the experiment with SK-MEL-2 melanoma, in the experiment with SW-620 colon, with SK-MEL-5 melanoma, in the experiment with MOLT-4 leukemia, in the experiment on A549 NSCLC and in the experiment on MALME-3M melanoma was above 100 µM each time.

For `C=C1CC[C@@]2(C)[C@@H]([C@@H]1C)[C@H]1CC[C@@H]3[C@@]4(C)CC[C@H](O)C(C)(C)[C@@H]4CC[C@@]3(C)[C@]1(C)C[C@@H]2O`, the TGI in the experiment on CCRF-CEM leukemia was above 100 µM; in the experiment with A498 renal, 4.35 µM; with SK-MEL-2 melanoma it was 12.7 µM; with PC-3 prostate it was 10.3 µM; with SW-620 colon, above 100 µM; in the experiment with SK-MEL-5 melanoma it was above 50.3 µM. Further, the TGI with MOLT-4 leukemia is above 100 µM; in the experiment with ACHN renal it was 4.44 µM; in the experiment on A549 NSCLC, 4.65 µM; with MALME-3M melanoma, 12.3 µM.

Consider `CON(C)c1nc(N)c(C#N)c(C#N)c1C#N`, for which the TGI in the experiment with CCRF-CEM leukemia, in the experiment with A498 renal, with SK-MEL-2 melanoma, in the experiment on PC-3 prostate, with SW-620 colon and in the experiment with SK-MEL-5 melanoma was above 10 µM in each case. The TGI in the experiment on MOLT-4 leukemia, in the experiment on ACHN renal, in the experiment with A549 NSCLC and in the experiment on MALME-3M melanoma was above 10 µM throughout.

For the compound `C[C@@H]1C[C@H]2OC(=O)[C@@]3(C)CCC[C@@](C)([C@@H]23)[C@@]1(O)CCc1ccoc1`, the TGI in the experiment on CCRF-CEM leukemia, in the experiment with A498 renal, with SK-MEL-2 melanoma, with PC-3 prostate, in the experiment with SW-620 colon and in the experiment with SK-MEL-5 melanoma was above 100 µM each time. Besides, the TGI in the experiment on MOLT-4 leukemia is above 94.4 µM; in the experiment with ACHN renal it was above 100 µM; in the experiment with A549 NSCLC, above 100 µM.

In the case of `COc1cccc(N/C(C)=C2/CCOC2=O)c1`, the TGI in the experiment with CCRF-CEM leukemia, in the experiment with A498 renal, with SK-MEL-2 melanoma, in the experiment with PC-3 prostate, in the experiment with SW-620 colon and in the experiment with SK-MEL-5 melanoma was above 10 µM in each case. Further, the TGI in the experiment on MOLT-4 leukemia, in the experiment with ACHN renal, in the experiment on A549 NSCLC and in the experiment with MALME-3M melanoma was above 10 µM in each case.
